Source: ChEMBL document CHEMBL3046848, “Synthesis and biological evaluation of novel series of thieno[2,3-d]pyrimidine derivatives as anticancer and antimicrobial agents” (2013)

Legend:
Assay type in all cases: functional
A498 = test: Anticancer activity against Homo sapiens (human) A498 cells after 48 hr by SRB assay; conditions: A498, 48 h
SNB-19 = test: Growth inhibition of Homo sapiens (human) SNB19 cells at 10 uM after 48 hr by SRB assay; conditions: SNB-19, 48 h, read-out: GI
SF-295 = test: Anticancer activity against Homo sapiens (human) SF295 cells after 48 hr by SRB assay; conditions: SF-295, 48 h
HT-29 = test: Growth inhibition of Homo sapiens (human) HT-29 cells at 10 uM after 48 hr by SRB assay; conditions: HT-29, 48 h, read-out: GI
Candida albicans = test: Antimicrobial activity against Candida albicans ATCC2091 assessed as diameter of growth inhibition zone at 1 mg/ml after 48 hr by agar cup diffusion method; conditions: ATCC2091, 48 h, read-out: IZ
OVCAR-5 = test: Growth inhibition of Homo sapiens (human) OVCAR5 cells at 10 uM after 48 hr by SRB assay; conditions: OVCAR-5, 48 h, read-out: GI
Hs-578T = test: Growth inhibition of Homo sapiens (human) Hs 578T cells at 10 uM after 48 hr by SRB assay; conditions: read-out: GI
BT-549 = test: Anticancer activity against Homo sapiens (human) BT549 cells after 48 hr by SRB assay; conditions: BT-549, 48 h
OVCAR-4 = test: Growth inhibition of Homo sapiens (human) OVCAR4 cells at 10 uM after 48 hr by SRB assay; conditions: OVCAR-4, 48 h, read-out: GI
LOX IMVI = test: Anticancer activity against Homo sapiens (human) LOXIMVI cells after 48 hr by SRB assay
A549 = test: Growth inhibition of Homo sapiens (human) A549/ATCC cells at 10 uM after 48 hr by SRB assay; conditions: A549, 48 h, read-out: GI
SN12C = test: Anticancer activity against Homo sapiens (human) SN12C cells after 48 hr by SRB assay
NCI-H322M = test: Growth inhibition of Homo sapiens (human) NCI-H322M cells at 10 uM after 48 hr by SRB assay; conditions: read-out: GI
CAKI-1 = test: Growth inhibition of Homo sapiens (human) CAKI-1 cells at 10 uM after 48 hr by SRB assay; conditions: CAKI-1, 48 h, read-out: GI
UACC-257 = test: Anticancer activity against Homo sapiens (human) UACC257 cells after 48 hr by SRB assay; conditions: UACC-257, 48 h
OVCAR-8 = test: Growth inhibition of Homo sapiens (human) OVCAR8 cells at 10 uM after 48 hr by SRB assay; conditions: OVCAR-8, 48 h, read-out: GI
SF-539 = test: Anticancer activity against Homo sapiens (human) SF539 cells after 48 hr by SRB assay; conditions: SF-539, 48 h
HOP-92 = test: Growth inhibition of Homo sapiens (human) HOP92 cells at 10 uM after 48 hr by SRB assay; conditions: HOP-92, 48 h, read-out: GI
MDA-MB-435 = test: Anticancer activity against Homo sapiens (human) MDA-MB-435 cells after 48 hr by SRB assay; conditions: MDA-MB-435, 48 h
[1] = read-out: LC50 (the source's name)

Cc1c(C(N)=O)sc2nc(C)n(/N=c3\scc(-c4ccccc4)n3Cc3ccccc3)c(=O)c12
GI50 (A498): 2.53 µM
TGI (A498): 8.97 µM
CC50 (A498; [1]): > 100 µM
inhibition of growth at 10 µM (SNB-19): 70.6%
GI50 (SF-295): 2.93 µM
TGI (SF-295): > 100 µM
CC50 (SF-295; [1]): > 100 µM
inhibition of growth at 10 µM (HT-29): 20.5%
zone of inhibition at 1000 µg/mL (Candida albicans): 17 mm
inhibition of growth at 10 µM (OVCAR-5): 52.1%
inhibition of growth at 10 µM (Hs-578T): 115%
GI50 (BT-549): 2.41 µM
TGI (BT-549): 8.89 µM
CC50 (BT-549; [1]): > 100 µM
inhibition of growth at 10 µM (OVCAR-4): 66.5%
GI50 (LOX IMVI): 3.54 µM
TGI (LOX IMVI): > 100 µM
CC50 (LOX IMVI; [1]): > 100 µM
inhibition of growth at 10 µM (A549): 100%
GI50 (SN12C): 3.84 µM
TGI (SN12C): > 100 µM
CC50 (SN12C; [1]): > 100 µM
inhibition of growth at 10 µM (NCI-H322M): 64.6%
inhibition of growth at 10 µM (CAKI-1): 141%
GI50 (UACC-257): 3.56 µM
TGI (UACC-257): 24.3 µM
CC50 (UACC-257; [1]): > 100 µM
inhibition of growth at 10 µM (OVCAR-8): 85.3%
GI50 (SF-539): 4.02 µM
TGI (SF-539): > 100 µM
CC50 (SF-539; [1]): > 100 µM
inhibition of growth at 10 µM (HOP-92): 119%
GI50 (MDA-MB-435): 2.89 µM
TGI (MDA-MB-435): 12.5 µM
CC50 (MDA-MB-435; [1]): > 100 µM
